Measured values: US20250255945A1, “CLICK CHEMISTRY HLA POLYPEPTIDES” (IMMUNEO Therapeutics GmbH, priority 2024, published 2025)

What follows are substances tested on peripheral blood mononuclear cells (PBMCs) (assay: IFN-γ ELISPOT assay (ex vivo) with subject PBMCs). Conditions: Example 3 subject PBMCs; compared to the HTAPP without DACP.
Format: cell-based, human
Description: IFNγ ELISpot analysis (for protocol see A. Lalvani, R. Brookes, S. Hambleton, W. J. Britton, A. V. S. Hill, A. J. McMichael, J Exp Med 1997; 186 (6): 859-865) was performed ex vivo (without further in vitro culturing for expansion) using PBMCs depleted of CD4+ and enriched for CD8+ T cells (CD8+ effectors), or depleted of CD8+ and enriched for CD4+ T cells (CD4+ effectors). Tests were performed in duplicate and with a positive and negative control, Multiscreen filter plates (Merck Millipore) pre-coated with IFNγ-specific antibodies (ELISpotPro kit, Mabtech). 267.000 Cells were used per plate. Plates were scanned using an AID Classic Robot ELISPOT Reader and analyzed by AID ELISPOT 7.0 software (AID Autoimmun Diagnostika). Antigen Peptides (except negative and positive control group) were done in duplicates, spot counts were taken as mean values of each duplicate.
The immunogenicity of each of the six peptides was analyzed by IFN-γ secretion by subject peripheral blood mononuclear cells (PBMCs) using ELIspot assay. […]
The immunogenicity of each peptide was assessed in peripheral blood mononuclear cells (PBMCs) from patients and using the IFN-γ-ELISPOT assay. ELISPOT results were considered positive if the number of spots was at least 2-fold higher than the negative control (medium) and at least 50 spots were detected. […] We also tested the effect of delivery aiding peptides (DACP-1) and peptide extension by overlapping tandemization and tandemization on the immunogenicity of the epitopes.
For “LQEFRRFQDPGRIVAIVRQIKIWFQNRRMKWKK [SEQ-ID-No.: 20]”, the “response rate in ELIspot on addition of a DACP” value was “increase in the response rate”. “KLVVVGAVGVGKSALTIRQIKIWFQNRRMKWKK [SEQ-ID-No.: 18]” was tested, and the “response rate in ELIspot on addition of a DACP” value was “increase in the response rate”.

Same assay, conditions: Table 1, HTAPPs; response in ELISPOT experiments
In the case of “2 (LANSPDLSHLAYYVTKVKEEDAF) [compound 2]”, the “Elispot [nspots/pM]” value was 419,5 nspots/pM. With “17 (QSYPGSASLAAYSGMPRISKL) [compound 17]” the “Elispot [nspots/pM]” value was 202,5 nspots/pM. In the case of 10 (LFKDLGLPARTVSTTF) [compound 10], the “Elispot [nspots/pM]” value was 143,5 nspots/pM. With “6 (NVGLSAVCTYNLSTAAAYCIHSINLHNFSNSVL) [compound 6]” the “Elispot [nspots/pM]” value was 330,5 nspots/pM. With “13 (LSKNLVAQISALALQLAAYGNSITGIISSVLGHIS) [compound 13]” the “Elispot [nspots/pM]” value was 205 nspots/pM. For 5 (IKPRILGFDTPHYWLC) [compound 5], the “Elispot [nspots/pM]” value was 267,5 nspots/pM. For 11 (SPLTGGNMAF) [compound 11], the “Elispot [nspots/pM]” value was 145,5 nspots/pM. With 3 (LQEFRRFQDPGRIVAIV) [compound 3] the “Elispot [nspots/pM]” value was 246,0 nspots/pM. “14 (SPRQCSSWTLAAYKLAAFPTSL) [compound 14]” was tested, and the “Elispot [nspots/pM]” value was 137,5 nspots/pM. “9 (LPVMLLIVARPVKLAAFPTSLSD) [compound 9]” was tested, and the “Elispot [nspots/pM]” value was 289,5 nspots/pM. In the case of “8 (KKIRKPRTIYSSLQLQAAAYGIYDALFDIESKVDPSK) [compound 8]”, the “Elispot [nspots/pM]” value was 351,5 nspots/pM. With 4 (ETNFKSLFHDLFQKVEE) [compound 4] the “Elispot [nspots/pM]” value was 233,5 nspots/pM. For 1 (KLVVVGAVGVGKSALTI) [compound 1], the “Elispot [nspots/pM]” value was 32,5 nspots/pM. In the case of 16 (RERRVASWAMSFERL) [compound 16], the “Elispot [nspots/pM]” value was 326,5 nspots/pM.

Same assay, conditions: Table 2, HTAPP-DACP; response in ELISPOT experiments
In the case of “20 (LQEFRRFQDPGRIVAIVRQIKIWFQNRRMKWKK) [compound 20]”, the “Elispot [nspots/pM]” value was 500,0 nspots/pM. With “25 (RQRLALEAEKAAYEERGAAEALSVVRQIKIWFQNRRMKWKK) [compound 25]” the “Elispot [nspots/pM]” value was 317,5 nspots/pM. For “24 (RERRVASWAMSFERLRQIKIWFQNRRMKWKK) [compound 24]”, the “Elispot [nspots/pM]” value was 436,0 nspots/pM. For “18 (KLVVVGAVGVGKSALTIRQIKIWFQNRRMKWKK) [compound 18]”, the “Elispot [nspots/pM]” value was 447,5 nspots/pM. “31 (QSYPGSASLAAYSGMPRISKLRQIKIWFQNRRMKWK) [compound 31]” was tested, and the “Elispot [nspots/pM]” value was 415,0 nspots/pM. With “30 (KDYSVLYVVPGPVRFQRQIKIWFQNRRMKWKK) [compound 30]” the “Elispot [nspots/pM]” value was 234,0 nspots/pM. For “22 (IKPRILGFDTPHYWLCRQIKIWFQNRRMKWKK) [compound 22]”, the “Elispot [nspots/pM]” value was 477,0 nspots/pM. In the case of “27 (LFKDLGLPARTVSTTFRQIKIWFQNRRMKWKK) [compound 27]”, the “Elispot [nspots/pM]” value was 196,0 nspots/pM. For “26 (IPDEYGNTALHYAIYNEDKLMRQIKIWFQNRRMKWKK) [compound 26]”, the “Elispot [nspots/pM]” value was 347,5 nspots/pM. With “21 (ETNFKSLFHDLFQKVEERQIKIWFQNRRMKWKK) [compound 21]” the “Elispot [nspots/pM]” value was 334,0 nspots/pM. In the case of “28 (SPRQCSSWTLAAYKLAAFPTSLRQIKIWFQNRRMKWKK) [compound 28]”, the “Elispot [nspots/pM]” value was 320,0 nspots/pM. With “19 (LANSPDLSHLAYYVTKVKEEDAFRQIKIWFQNRRMKWKK) [compound 19]” the “Elispot [nspots/pM]” value was 430,5 nspots/pM. For “23 (MLFSNITPKAAYSPLTGGNMAFRQIKIWFQNRRMKWKK) [compound 23]”, the “Elispot [nspots/pM]” value was 285,0 nspots/pM. For “29 (HRCATITHLLAAYYLVLNFNKKRQIKIWFQNRRMKWKK) [compound 29]”, the “Elispot [nspots/pM]” value was 342,5 nspots/pM.

Same assay, conditions: Table 4, HTAPP-DACP related to group therapy
With “50 (LLGRNSFEVCVCACPGRDRRQIKIWFQNRRMKWKK) [compound 50]” the “Elispot [nspots/pM]” value was 256,7 nspots/pM. In the case of “42 (ICLTSTVQLIMQLMPFGCLLRQIKIWFQNRRMKWKK) [compound 42]”, the “Elispot [nspots/pM]” value was 20,8 nspots/pM. For “40 (HTLYGHTSTVCCMHLHEKRVRQIKIWFQNRRMKWKK) [compound 40]”, the “Elispot [nspots/pM]” value was 95,0 nspots/pM. For “43 (IGHKVDAVFMKDGFFYFFHGTRQYRQIKIWFQNRRMKWKK) [compound 43]”, the “Elispot [nspots/pM]” value was 134,2 nspots/pM. “49 (LLDILDTAGHEEYSAMRDQRQIKIWFQNRRMKWKK) [compound 49]” was tested, and the “Elispot [nspots/pM]” value was 161,7 nspots/pM. In the case of “48 (KVKIPVAIKTSPKANKEIRQIKIWFQNRRMKWKK) [compound 48]”, the “Elispot [nspots/pM]” value was 39,2 nspots/pM. With “47 (KLVVVGADGVGKSALTIQLIQNHRQIKIWFQNRRMKWKK) [compound 47]” the “Elispot [nspots/pM]” value was 120,0 nspots/pM. With “34 (DSTPPPGTRVLAMAIYKQSQRQIKIWFQNRRMKWKK) [compound 34]” the “Elispot [nspots/pM]” value was 35,8 nspots/pM. “35 (EYFMKQMNDARHGGWTTKMDRQIKIWFQNRRMKWKK) [compound 35]” was tested, and the “Elispot [nspots/pM]” value was 20,0 nspots/pM. With “44 (KAISTRDPLSKITEQEKDFLWRQIKIWFQNRRMKWKK) [compound 44]” the “Elispot [nspots/pM]” value was 103,3 nspots/pM. In the case of “45 (KIGDFGLATEKSRWSGSHQRQIKIWFQNRRMKWKK) [compound 45]”, the “Elispot [nspots/pM]” value was 55,0 nspots/pM. “36 (EYKLVVVGAVGVGKSALTIQRQIKIWFQNRRMKWKK) [compound 36]” was tested, and the “Elispot [nspots/pM]” value was 140 nspots/pM. In the case of “41 (HTLYGHTSTVHCMHLHEKRVRQIKIWFQNRRMKWKK) [compound 41]”, the “Elispot [nspots/pM]” value was 39,2 nspots/pM. With “32 (AAKALMSAFYTFRYPLSLRQIKIWFQNRRMKWKK) [compound 32]” the “Elispot [nspots/pM]” value was 75,8 nspots/pM. With “37 (GACRHGDRCSRLHNKPTFSRQIKIWFQNRRMKWKK) [compound 37]” the “Elispot [nspots/pM]” value was 47,5 nspots/pM. In the case of “52 (LLGRNSFEVLVCACPGRDRRQIKIWFQNRRMKWKK) [compound 52]”, the “Elispot [nspots/pM]” value was 275,0 nspots/pM. “46 (KLVVVGACGVGKSALTIQLIQNHRQIKIWFQNRRMKWKK) [compound 46]” was tested, and the “Elispot [nspots/pM]” value was 54,2 nspots/pM. In the case of “51 (LLGRNSFEVHVCACPGRDRRQIKIWFQNRRMKWKK) [compound 51]”, the “Elispot [nspots/pM]” value was 264,2 nspots/pM. With “33 (ATYLWWVNNQSLPVSPRAAYLLLTASLLTFWNPRQIKIWFQNRRMKWKK) [compound 33]” the “Elispot [nspots/pM]” value was 271,7 nspots/pM.

Same assay, conditions: Table 5, HTAPP-DACP related to group therapy
“58 (NSSCMGGMNWRPILTIITLRQIKIWFQNRRMKWKK) [compound 58]” was tested, and the “Elispot [nspots/pM]” value was 228,3 nspots/pM. In the case of “60 (PSDQDLLRCHVLTSGIFETRQIKIWFQNRRMKWKK) [compound 60]”, the “Elispot [nspots/pM]” value was 163,3 nspots/pM. “55 (MTEYKLVVVGARGVGKSALRQIKIWFQNRRMKWKK) [compound 55]” was tested, and the “Elispot [nspots/pM]” value was 44,2 nspots/pM. In the case of “63 (SQHMTEVVRHCPHHERCSDRQIKIWFQNRRMKWKK) [compound 63]”, the “Elispot [nspots/pM]” value was 88,3 nspots/pM. For “57 (NSSCMGGMNQRPILTIITLRQIKIWFQNRRMKWKK) [compound 57]”, the “Elispot [nspots/pM]” value was 102,5 nspots/pM. With “56 (MTEYKLVVVGASGVGKSALTIQLIQNHRQIKIWFQNRRMKWKK) [compound 56]” the “Elispot [nspots/pM]” value was 56,7 nspots/pM. “65 (TEYKLVVVGAAGVGKSALTIQRQIKIWFQNRRMKWKK) [compound 65]” was tested, and the “Elispot [nspots/pM]” value was 22,5 nspots/pM. “64 (STRDPLSEITKQEKDFLWSHRQIKIWFQNRRMKWKK) [compound 64]” was tested, and the “Elispot [nspots/pM]” value was 80,8 nspots/pM. For “62 (RVCACPGRDWRTEEENLRKRQIKIWFQNRRMKWKK) [compound 62]”, the “Elispot [nspots/pM]” value was 279,2 nspots/pM. For “66 (TIHYNYMCNSSCMGSMNRRPILTIRQIKIWFQNRRMKWKK) [compound 66]”, the “Elispot [nspots/pM]” value was 13,3 nspots/pM. With “59 (PSDQDLLRCCVLTSGIFETRQIKIWFQNRRMKWKK) [compound 59]” the “Elispot [nspots/pM]” value was 100,8 nspots/pM. With “54 (MLPQIPFLLLVSLNLVHGVFRQIKIWFQNRRMKWKK) [compound 54]” the “Elispot [nspots/pM]” value was 246,7 nspots/pM.

Same assay, conditions: Table 6, further HTAPPs, HTAPP-DACPs and reference sequences
75 (SAANIRALNVPPSLA) [compound 75] was tested, and the “Elispot [nspots/pM]” value was 196,0 nspots/pM. In the case of “70 (ESGCEERGAAMIQTVDPAAHRQIKIWFQNRRMKWKK) [compound 70]”, the “Elispot [nspots/pM]” value was 153,5 nspots/pM. For “80 (NFMLNQNVMLSVKGITKNVHTRQIKIWFQNRRMKWKK) [compound 80]”, the “Elispot [nspots/pM]” value was 232,5 nspots/pM. 74 (SPITSVLSADLFPKA) [compound 74] was tested, and the “Elispot [nspots/pM]” value was 128,5 nspots/pM. “81 (LTPKKLQCVDLHVISNDRQIKIWFQNRRMKWKK) [compound 81]” was tested, and the “Elispot [nspots/pM]” value was 272,5 nspots/pM. “79 (AIYNEDKLMAKALLLYGADIERQIKIWFQNRRMKWKK) [compound 79]” was tested, and the “Elispot [nspots/pM]” value was 242,5 nspots/pM. 77 (KKIRKPRTIYSSLQLQA) [compound 77] was tested, and the “Elispot [nspots/pM]” value was 148,0 nspots/pM. “83 (QSYPGSASLAAYSGMPRISKLRQIKIWFQNRRMKWKK) [compound 83]” was tested, and the “Elispot [nspots/pM]” value was 367,5 nspots/pM. 78 (GIYDALFDIESKVDPSK) [compound 78] was tested, and the “Elispot [nspots/pM]” value was 134,5 nspots/pM. For 76 (PQELWHFLTQNLSLPN) [compound 76], the “Elispot [nspots/pM]” value was 470,5 nspots/pM. 69 (VAFLGCPGFAGVLQT) [compound 69] was tested, and the “Elispot [nspots/pM]” value was 149,0 nspots/pM. “71 (QRQLNTALPQPFREAPAYSNRQIKIWFQNRRMKWKK) [compound 71]” was tested, and the “Elispot [nspots/pM]” value was 270,5 nspots/pM. “84 (PPSNATAETQPIPQKAAYLEAIFLRDWDSLYSHDLDTSADS) [compound 84]” was tested, and the “Elispot [nspots/pM]” value was 197,5 nspots/pM.

Same assay, conditions: tandem peptide in relation to the more immunogenic single HTAP (SEQ-ID-No.: 77 / 78)
“KKIRKPRTIYSSLQLQAAAYGIYDALFDIESKVDPSK [SEQ-ID-No.: 8]” was tested, and the “increase in Elispot count” value was “more than 237%”.
